Source: patent publication US11987807B2, “Isolated human lung progenitor cells and uses thereof” (THE GENERAL HOSPITAL CORPORATION, priority 2012, dated 2024)
Read-outs that look alike come from different tables or passages of the source.

How the values were obtained:
[1] = tested on: human iPSC-derived Foxa2+Sox2+ anterior endoderm; experiment: Chemical screening and differentiation of Nkx2.1+ lung progenitors from human iPSC-derived Foxa2+Sox2+ anterior endoderm; format: cell-based
Protocol: In order to increase the efficiency of Nkx2.1+ lung progenitor production, the inventors performed an unbiased high throughput chemical screening on a kinase pathway inhibitor library and an NIH clinical drug library to identify small molecule compounds and FDA-approved clinical drugs that can facilitate NKX2.1-positive lung progenitor differentiation. The platform for chemical screening is illustrated in FIG. 14A. The screening was performed at the step of conversion of Foxa2+Sox2+ anterior endoderm to Nkx2.1+ lung endoderm.
At least five molecules were identified from the Kinase Compound Set (240 compounds) and at least 6 drugs were identified from the NIH Clinical Collection (400 compounds) that produced statistically significant (more than 3 fold) increases in the percentage of Nkx2.1+ cells (FIG. 14B). These Nkx2.1+ cells have been further stained in separate experiments to exclude the expression of neuronal lineage marker Tuj1 and thyroid lineage marker Pax8. In addition, all positive candidates identified in the primary screen have been assessed for drug duration and dose effects to increase the formation of lung progenitors, and they have been evaluated for other effects including inducing cytotoxicity, and cellular proliferation by Ki67 staining. […] It was also determined that BMP4 is dispensable for human lung progenitor differentiation from iPSCs, indicating a species difference in lung development in human and mouse.
Several of these negative compounds are MEK1/2 antagonists. […] For example, endoderm-specific deletion of MEK1/2 results in lung agenesis in mice (unpublished data).
After studying the additive and synergistic effects of the positive hits, a robust and economically efficient new protocol was devised for the generation of a highly enriched population of Nkx2.1+ lung progenitors (up to 85%-90%) from multiple iPS cell lines in xeno-free conditions in order to keep the cells suitable for future clinical applications. This exemplary differentiation medium contains one Wnt agonist (e.g., 0.5 uM CHIR9902), one PI3 kinase inhibitor (e.g., 0.02-0.05 uM PIK-75), one clinically used drug (e.g., 0.02-0.05 uM methotrexate), one BMP antagonist (e.g., 2-4 uM Dorsomorphin) and a single growth factor (e.g., 10-50 ng/ml FGF2). FIG. 12 is the summary of the newly developed step-wise airway progenitor differentiation protocol from iPSC to airway progenitors. Many other protocols can be generated by one of skill in the art from this basic protocol (RPMI+2% B27+10-50 ng/ml FGF2+0.5 uM CHIR9902+2-4 uM Dorsomorphin) together with the compounds listed in FIG. 14.

[2] = tested on: mouse ESC-derived endoderm / anterior foregut endoderm cells; conditions: for NKX2.1 induction: anteriorized endoderm, BMP4 alone, or FGF2 or/and GSK3i without BMP4
Source text: Dorsomorphin inhibits BMP signaling through the SMAD pathway while PD98059 inhibits MAPK signaling.
A recent report described a monolayer-based strategy using synergistic activation of Nodal and Wnt-β-catenin signaling as well as staged BMP4 inhibition to direct mouse ES cells towards an endoderm fate with high efficiency (Sherwood et al., 2011). This technology was adapted herein to generate definitive endoderm (DE) from mouse ES cells. […] Snoeck and colleagues reported that Noggin (a BMP inhibitor) synergized with SB431542 (a TGFβ inhibitor) to suppress a posterior endoderm fate (Cdx2+) in favor of an anterior endoderm fate (Sox2+) (Green et al., 2011). […] Endoderm was treated with combinations of Activin (a TGFβ agonist), A-83-01 (a TGFβ antagonist), BMP4, and Dorsomorphin (a BMP4 antagonist) for 2 days (FIG. 2B). The number of FoxA2+Sox2+ anterior endoderm cells was compared to the total number of FoxA2+ endoderm cells (FIG. 2B). The treated cells were further exposed to the BMP4/FGF2/WNT agonist cocktail for another 2 days to examine their competence to generate Nkx2.1+ cells (FIG. 2B). […] It was tested if their inhibition would enhance anteriorization together with a TGFβ inhibitor.
The expression of lung and other anterior cell fate lineage genes including FoxN1 (thymus), Pax8 (thyroid), and Pax9 and Tbx1 (pharyngeal pouch endoderm) was analyzed by real-time qPCR (Figure S4A).
It was tested if BMP4, FGF2, and WNT signaling are each required to specify lung endoderm from the anterior foregut in an in vitro mouse ESC differentiation system. To do this, anteriorized endoderm cells were exposed to combinations of BMP4, FGF2 and WNT agonists and antagonists (FIGS. 3A and B).
These complexes translocate to the nucleus and activate expression of target genes (von Bubnoff and Cho, 2001; Chen et al., 2004; Sieber et al., 2009; Miyazono et al., 2010). Besides Smad1/5/8-mediated transcription, BMP-induced receptor complexes can activate the mitogen-activated protein kinase (MAPK) pathway via ERK, […] or p38 (Kozawa et al., 2002).
(§1) Mouse Endoderm Anteriorization and Nkx2.1 Cell Differentiation: Mouse definitive endoderm was generated as described herein. To anteriorize endoderm, on and after day 5, the cells were split and re-seeded on to the plates pre-coated with 804G-conditioned medium and fed with DO medium+0.5-1 μM A8301 (CalBiochem, 616454) for 2 days.

[3] = tested on: mouse ESC-derived Nkx2.1+ cells; experiment: Generation of proximal airway progenitors from mouse ESC-derived Nkx2.1+ lung endoderm cells; format: cell-based
Protocol: as §1

[4] = tested on: mouse ES cell-derived definitive endoderm; experiment: Anteriorization of mouse ESC-derived definitive endoderm to FoxA2+Sox2+ anterior foregut endoderm; format: cell-based; conditions: for effect on FoxA2+Sox2+ cells: treatment of definitive endoderm at the anteriorization step
Protocol: This technology was adapted herein to generate definitive endoderm (DE) from mouse ES cells. […] Next, it was asked if the newly generated DE cells have the competence to generate Nkx2.1+ cells. […] Since the inventors had already incorporated BMP inhibition during DE generation (FIG. 7), the question whether continuous BMP inhibition is necessary for anteriorization or if TGFβ inhibition alone was sufficient for anterior patterning was explored. Endoderm was treated with combinations of Activin (a TGFβ agonist), A-83-01 (a TGFβ antagonist), BMP4, and Dorsomorphin (a BMP4 antagonist) for 2 days (FIG. 2B). The number of FoxA2+Sox2+ anterior endoderm cells was compared to the total number of FoxA2+ endoderm cells (FIG. 2B). The treated cells were further exposed to the BMP4/FGF2/WNT agonist cocktail for another 2 days to examine their competence to generate Nkx2.1+ cells (FIG. 2B). […] It was tested if their inhibition would enhance anteriorization together with a TGFβ inhibitor.
Mouse Endoderm Anteriorization and Nkx2.1 Cell Differentiation: Mouse definitive endoderm was generated as described herein. To anteriorize endoderm, on and after day 5, the cells were split and re-seeded on to the plates pre-coated with 804G-conditioned medium and fed with DO medium+0.5-1 μM A8301 (CalBiochem, 616454) for 2 days. Then the media was rinsed with DO medium 2 times and switched to DO medium supplemented with 50 ng/ml BMP4, 100 ng/ml FGF2 (GIBCO, PHG0026), and 5-10 nM GSK3iXV for another 2-3 days. To generate Nkx2.1+Sox2+ proximal progenitor cells, the cells were rinsed with DO medium 2 times and switched to DO medium containing RA-supplemented B27, 50 ng/ml BMP7, 50 ng/ml FGF7, 100 nM IWR-1, and 1-2 μM PD98059 for 2 days or longer times.
Immunofluorescence: At each differentiation step, the cells were fixed with fresh paraformaldehyde (4%) for 15 min at room temperature, rinsed in PBS, washed with PBS+0.2% Triton X-100 and incubated with the primary antibodies at 4° C. overnight (>16 hrs) diluted in PBS+1% BSA. Following incubation, the cells were rinsed 4 times PBS+0.2% Triton X-100, and incubated with secondary antibodies at room temperature for 2 hours. The images were visualized using an Olympus IX71 inverted fluorescence microscope or a Nikon A1 Confocal Laser microscope.
The secondary antibodies were purchased from Invitrogen (AlexaFluor-549 and AlexaFluor-488). The quantification was performed by counting at least 5 random fields at 20× magnification and calculating the average and standard deviation.

With CCCCCCCCCCCCCC(=O)O[C@@H]1[C@@H](C)[C@@]2(O)[C@@H](C=C(CO)C[C@]3(O)C(=O)C(C)=C[C@@H]23)[C@@H]2C(C)(C)[C@]12OC(C)=O [phorbol 12-myristate 13-acetate] the “NKX2.1+ cell production” value ([1]; in vitro differentiation systems) was “stimulates NKX2.1+ cell production”.

In the case of COC(=O)c1ccc[cH-]1.O=C1NC(=O)c2c1c1cccnc1c1[n-]c3c(Br)cc(O)cc3c21.[CH+]=O.[Ru] [GSK3i], the NKX2.1 induction [2] is reported as “not sufficient for NKX2.1 induction”.

With COc1cccc(-c2cc(=O)c3ccccc3o2)c1N [PD98059] the “Nkx2.1+Sox2+ airway progenitor cells (of total number of Nkx2.1+ cells)” value ([3]; from day 9, 2-3 days, 1%-2% before treatment) was “up to 18%”, the cell death [2] was “Significant cell death” and the “effect on generation of Nkx2.1+ cells” value ([2]; added to BMP4 induction (pSmad1/5/8 or MAPKK/ERK inhibition)) was “only partially decreased the Nkx2.1+ cell proportion”.

With CCN(CC)CCCCNc1ncc2cc(-c3cc(OC)cc(OC)c3)c(NC(=O)NC(C)(C)C)nc2n1 [PD173074] the cell death ([4]; together with a TGFβ inhibitor at anteriorization) was “induced cell death”.

For O=C(Nc1cccc2cccnc12)c1ccc(N2C(=O)[C@@H]3[C@H](C2=O)[C@@H]2C=C[C@H]3C2)cc1 [IWR-1], the “effect on Nkx2.1+Sox2+ cell production” value ([3]; individual factors removed or replaced in proximal induction medium) was “most pronounced effect” and the “effect on FoxA2+Sox2+ cells” value [4] was “did not increase the FoxA2+Sox2+ population”.

“BMP4: bone morphogenic protein 4, growth factor” was tested, and the “requirement for human lung progenitor differentiation from iPSCs” value [1] was “dispensable”, the NKX2.1 expression level ([1]; addition of BMP4) was “decreases NKX2.1 expression” and the “total NKX2.1+ lung progenitor cell number” value ([1]; addition of BMP4) was “without affecting the total NKX2.1+ lung progenitor cell number”. For the same molecule, the NKX2.1 induction [2] was “could induce NKX2.1 expression” and the “neuroectodermal marker Tuj1” value ([4]; BMP4 present between days 5-7) was “less neuroectodermal marker Tuj1 was present”.

With FGF2: fibroblast growth factor the “effect on Nkx2.1+ cells” value ([2]; added dose of FGF2 despite presumptive endogenous FGF signaling) was “upregulated Nkx2.1+ cells” and the NKX2.1 induction [2] was “not sufficient for NKX2.1 induction”.

B1: Activin: a TGFβ agonist (protein, UniProt P08476 311-426, looked up)
Inhibin beta A chain: GLECDGKVNICCKKQFFVSFKDIGWNDWIIAPSGYHANYCEGECPSHIAGTSGSSLSFHSTVINHYRMRGHSPFANLKSCCVPTKLRPMSMLYYDDGQNIIKKDIQNMIVEECGCS
modifications: Inhibin beta A chain
notes: a TGFβ agonist
For B1, the “effect on Nkx2.1+ cells” value ([2]; treatment at the anteriorization step, then BMP4/FGF2/WNT agonist cocktail 2 days) was “few Nkx2.1+ cells” and the “effect on FoxA2+Sox2+ cells” value [4] was “rare FoxA2+Sox2+ cells”.

B2: BMP7: BMP family member binding type I receptor ALK2 (protein, UniProt P18075 293-431, looked up)
Bone morphogenetic protein 7: STGSKQRSQNRSKTPKNQEALRMANVAENSSSDQRQACKKHELYVSFRDLGWQDWIIAPEGYAAYYCEGECAFPLNSYMNATNHAIVQTLVHFINPETVPKPCCAPTQLNAISVLYFDDSSNVILKKYRNMVVRACGCH
With B2 the “induction of Nkx2.1+ cells from the anterior endoderm compared to BMP4” value ([2]; BMP7 10 ng/ml) was “had no effect” and the “induction of Nkx2.1+ cells from the anterior endoderm” value ([2]; increased concentration (>100 ng/ml)) was “still failed to generate Nkx2.1+ cells”.
